Literature values in patent US8034844B2, “Compositions having a high antiviral efficacy” (The Dial Corporation, priority 2006, dated 2011).

Tested on: rhinoviral infections
Settings: vs placebo users

II [iodine]
Incidence of colds in users: significantly fewer colds than placebo users
